pIC50: −log10 of the molar value.
Columns and labels:
[1] = system: Huh-7; assay: Cytotoxicity against human HuH-7 cells by MTT assay
[2] = molecular target: T1, Bile acid receptor (Homo sapiens, UniProt Q96RI1); assay: Antagonist activity against recombinant human FXR transfected in human HuH-7 cells co-transfected with FRE-luciferase assessed as reduction in CDCA-induced luciferase expression incubated for 24 hrs by luciferase reporter gene assay
T1 sequence (Q96RI1 whole entry): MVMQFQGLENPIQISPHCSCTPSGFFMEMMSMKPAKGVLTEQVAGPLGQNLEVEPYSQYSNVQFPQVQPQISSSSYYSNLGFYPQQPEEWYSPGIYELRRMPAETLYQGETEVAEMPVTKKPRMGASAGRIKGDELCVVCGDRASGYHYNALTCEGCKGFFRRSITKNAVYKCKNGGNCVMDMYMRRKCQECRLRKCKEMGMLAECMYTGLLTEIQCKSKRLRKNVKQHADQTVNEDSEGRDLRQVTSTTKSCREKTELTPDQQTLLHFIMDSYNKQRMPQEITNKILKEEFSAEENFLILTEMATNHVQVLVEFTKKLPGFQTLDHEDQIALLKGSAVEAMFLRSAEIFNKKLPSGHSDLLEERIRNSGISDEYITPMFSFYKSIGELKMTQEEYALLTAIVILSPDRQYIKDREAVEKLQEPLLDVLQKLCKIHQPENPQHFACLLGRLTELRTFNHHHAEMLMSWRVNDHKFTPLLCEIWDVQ

[3] = Metabolic stability in mouse liver microsomes assessed as compound remaining at 1 ug/ml incubated for 30 mins by LC-MS/MS analysis; details: at 1 µg/mL
[4] = Metabolic stability in rat liver microsomes assessed as compound remaining at 1 ug/ml incubated for 30 mins by LC-MS/MS analysis; details: at 1 µg/mL
[5] = in vivo; details: Sprague-Dawley, rat, po, 30 mg/kg
[6] = in vivo; details: Sprague-Dawley, rat, po, 30 mg/kg; remark: listed apart in the source
[7] = in vivo; details: Sprague-Dawley, rat, po, 30 mg/kg; remark: listed apart in the source
[8] = molecular target: T1, Bile acid receptor; assay: Antagonist activity at recombinant GST-tagged FXR LBD (unknown origin) assessed as inhibition of GW4064-induced Fluorecein-SRC2-2 coactivator peptide recruitment by LanthaScreen TR-FRET co-regulator assay
[9] = Plasma concentration in Sprague-Dawley rat at 30 mg/kg, po measured after 6 hrs by LC-MS/MS analysis
[10] = rat, in vivo, iv, 1 mg/kg, 6 h
[11] = in vivo; details: Sprague-Dawley, rat, po, 30 mg/kg; remark: listed apart in the source

pIC50 [2] | remaining at 0.5 h, 1 ug/ml [3] | remaining at 0.5 h, 1 ug/ml [4] | Tmax at 6 h [5] | Cmax at 6 h [6] | bioavailability at 6 h [7] | pIC50 [8] | concentration at 6 h [9] | AUC [10] | AUC(0-t) at 6 h [11] | Compound | pIC50 [1]
> 12.00 | 2.4% | 12.1% | 2 h | 483 ng/mL | 18% |  |  |  |  | COc1ccc(Oc2ccc(N3CC(=O)N([C@@H](CC4CCN(C(=O)C(C)C)CC4)c4nc5ccc(C)cc5n4C)C3=O)cc2)cc1 | < 4.00
8.74 | 29.4% |  |  |  |  | 6.85 |  |  |  | CC(C)C(=O)N1CCC(C[C@@H](c2nc3ccccc3n2C2CC2)N2C(=O)CN(c3ccc(Oc4ccc(F)cc4)cc3)C2=O)CC1 | < 4.00
 | 54% | 84.4% | 3 h | 2850 ng/mL | 55.4% |  | 2480 ng/mL | 937 ng·h/mL | 15600 ng·h/mL | CC(C)C(=O)N1CCC(C[C@@H](c2nc3ccc(F)cc3n2C2CC2)N2C(=O)CN(c3ccc(Oc4ccc(F)cc4)cc3)C2=O)CC1 | < 4.00
 | 10.6% |  |  |  |  |  |  |  |  | Cc1ccc2nc([C@H](CC3CCN(C(=O)C(C)C)CC3)N3C(=O)CN(c4ccc(Oc5ccc(F)cc5)cc4)C3=O)n(C)c2c1 | < 4.00
